Experimental findings from patent US9914730B2, “Azaquinazoline inhibitors of Atypical protein Kinase C” (Ignyta, Inc., priority 2012, dated 2018) are described below.

For this experiment, the target named is T1, full-length human PKCι (Homo sapiens, UniProt P41743).
T1 construct: Recombinant, full-length human PKCι expressed in Sf21 insect cells is also commercially available; purchased; host or cells: Sf21 insect cells
T1 sequence (P41743 1-596): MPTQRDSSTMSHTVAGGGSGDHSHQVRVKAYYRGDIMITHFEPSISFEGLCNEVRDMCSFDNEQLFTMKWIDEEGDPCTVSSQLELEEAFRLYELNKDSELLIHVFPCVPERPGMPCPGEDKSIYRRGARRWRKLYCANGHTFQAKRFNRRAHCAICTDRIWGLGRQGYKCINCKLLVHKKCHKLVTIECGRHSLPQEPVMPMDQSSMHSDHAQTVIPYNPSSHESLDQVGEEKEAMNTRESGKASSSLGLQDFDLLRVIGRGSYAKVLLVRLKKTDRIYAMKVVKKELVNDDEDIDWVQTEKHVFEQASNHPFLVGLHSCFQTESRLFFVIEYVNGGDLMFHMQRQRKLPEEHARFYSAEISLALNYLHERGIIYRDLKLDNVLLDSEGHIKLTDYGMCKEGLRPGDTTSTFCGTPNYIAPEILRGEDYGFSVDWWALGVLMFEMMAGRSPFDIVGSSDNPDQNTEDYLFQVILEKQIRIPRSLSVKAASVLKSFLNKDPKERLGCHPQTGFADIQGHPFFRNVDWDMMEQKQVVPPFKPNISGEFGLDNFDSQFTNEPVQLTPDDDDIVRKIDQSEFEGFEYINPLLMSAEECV
Briefly: PKCι IC50 IMAP assay, full-length PKCι at 150 μM ATP. Format: biochemical. The conditions noted are these: read-out: IC50 in IMAP assay against full length PKCi at 150 μM ATP. From the text:
Assays are based on the ability of PKCι to phosphorylate a commercially available peptide substrate in vitro. The peptide substrate is FAM-PKCε pseudopeptide derived peptide, and comprises the amino acid sequence 5FAM-[…]-NH2. Recombinant, full-length human PKCι expressed in Sf21 insect cells is also commercially available. Recombinant, kinase-domain human PKCι is expressed and purified in-house.
The procedure below explains how dose response curves for inhibitors of PKCι are obtained. The screen described is for a 384 well format but the assay can be adapted to 1536 or other formats as required.
Compounds to be tested are dissolved in 100% DMSO. Compounds are diluted as required to give a final concentration of 4% DMSO (v/v) in the assay. 1 μl is plated into 384 well black low-binding flat bottomed assay plates which are used immediately. Dilutions and additions of compound to assay plates are carried out using Matrix WellMate® and Matrix PlateMate® Plus liquid handling systems.
On the day of the screen PKCι/substrate working solution, and ATP working solution, are prepared in buffer containing 20 mM tris-HCl pH7.5, 10 mM MgCl2, 0.01% Triton X100, 250 μM EGTA and 1 mM DTT. The final concentration of PKCι used varies depending on the batch of protein but is typically 15 pM. The final concentration of peptide substrate in the assay is 100 nM. ATP is used at a final concentration of 150 μM or 25 μM in the assays containing full-length or kinase-domain PKCι respectively, which corresponds to five times or equal to the KM^APP for ATP for each enzyme, respectively. The final buffer concentration in the assay is 18 mM tris-HCl pH7.5, 9 mM MgCl2, 0.009% Triton X100, 225 μM EGTA and 0.9 mM DTT. Relevant controls are included, namely no compound and no enzyme. 5 μl PKCι/substrate working solution at 30 pM and 200 nM, respectively, is added to the wells, followed by 4 μl ATP working solution at 375 μM or 62.5 μM for full-length or kinase-domain PKCι respectively, using a 16 channel Matrix pipette. The reaction is allowed to incubate for 60 minutes at room temperature, before the reaction is stopped and developed by the addition of 20 μl IMAP™ development reagent (Molecular Devices). IMAP development reagent consists of 0.25% (v/v) IMAP progressive binding reagent, 17% (v/v) IMAP progressive binding buffer A and 3% (v/v) IMAP progressive binding buffer B. The plates are then incubated for 2 hours at room temperature before being read using an appropriate plate reader, for example a Molecular Devices HT Analyst or a BMG Pherastar. Plates are read using a fluorescence polarisation protocol with excitation at 485 nm and emission at 530 nm, and dichroic mirror at 505 nm.
Percentage inhibition values are calculated from fluorescence polarisation values, using the no compound and no enzyme control values as 0% and 100% inhibition, respectively. IC50 determination is performed with ExcelFit software (IDBS) using curve fit 205. Z′ factors are determined for each plate tested and are all above 0.5.

Structures are written as SMILES.

The term IC50 denotes the concentration that inhibits the measured activity by half. Turning to `c1ccc(Nc2cc(-c3nc(N4CCNCC4)c4ccncc4n3)ccn2)cc1` [Example 494, Phenyl-[4-(4-piperazin-1-yl-pyrido[3,4-d]pyrimidin-2-yl)-pyridin-2-yl]-amine], the IC50 was in the range of 0.1 to 1 µM.

Regarding `C[C@@H](Nc1cc(-c2nc(N3CCNCC3)c3c(C4CC4)cncc3n2)ccn1)c1ccc(F)cc1` [Example 652], the IC50 is under 0.1 µM.

In the case of `NCc1ccc(-c2nccc3c(NC[C@@H](N)Cc4ccccc4)nc(-c4ccncc4)nc23)o1` [Example 121, N-[(2S)-2-amino-3-phenylpropyl]-8-[5-(amino-methyl)-furan-2-yl]-2-(pyridin-4-yl)pyrido[3,4-d]pyrimidin-4-amine], the concentration for half-maximal inhibition (IC50) was 0.1 to 1 µM.

As for `c1cc(-c2nc(N3CCNCC3)c3c(C4CC4)cncc3n2)c2cc(C3CCOC3)[nH]c2n1` (stereo not shown) [Example 2192, 5-Cyclopropyl-4-piperazin-1-yl-2-[2-(tetrahydro-furan-3-yl)-1H-pyrrolo[2,3-b]pyridin-4-yl]-pyrido[3,4-d]pyrimidine], the IC50 is under 0.1 µM.

Turning to `CN(c1nc(-c2ccnc(Nc3c(F)cccc3F)c2)nc2cncc(C3CC3)c12)C1CCNCC1` [Example 833, {5-Cyclopropyl-2-[2-(2,6-difluoro-phenylamino)-pyridin-4-yl]-pyrido[3,4-d]pyrimidin-4-yl}-methyl-piperidin-4-yl-amine], the IC50 was under 0.1 µM.

Take `COc1cncc2nc(-c3ccnc(Nc4ccccc4)c3)nc(N3CCN(CCO)CC3)c12` [Example 432, 2-{4-[5-Methoxy-2-(2-phenylamino-pyridin-4-yl)-pyrido[3,4-d]pyrimidin-4-yl]-piperazin-1-yl}-ethanol]: the half-inhibitory concentration (IC50) was 0.1 to 1 µM.

Turning to `C[C@@H](Nc1cc(-c2nc(N3CCNCC3)c3c(C4CC4)cncc3n2)ccn1)c1ccccc1F` [Example 2067, [4-(5-Cyclopropyl-4-piperazin-1-yl-pyrido[3,4-d]pyrimidin-2-yl)-pyridin-2-yl]-[(R)-1-(2-fluoro-phenyl)-ethyl]-amine], the IC50 was under 0.1 µM.

Regarding `Fc1ccc2c([nH]c3nccc(-c4nc(N5CCNCC5)c5c(C6CC6)cncc5n4)c32)c1F` [Example 2036, 4-(5-Cyclopropyl-4-piperazin-1-yl-pyrido[3,4-d]pyrimidin-2-yl)-7,8-difluoro-9H-pyrido[2,3-b]indole], the half-inhibitory concentration (IC50) was under 0.1 µM.

As for `CC1CN(c2nc(-c3ccnc(Nc4c(F)cccc4F)c3)nc3cncc(C4CC4)c23)CC(C)N1` (stereo not shown) [Example 787, {4-[5-Cyclopropyl-4-(3,5-dimethyl-piperazin-1-yl)-pyrido[3,4-d]pyrimidin-2-yl]-pyridin-2-yl}-(2,6-difluoro-phenyl)-amine], the IC50 was under 0.1 µM.

For `NCC1CCN(c2nc(-c3ccnc(Nc4c(F)cccc4F)c3)nc3cncc(C4CC4)c23)CC1` [Example 696, {4-[4-(4-Aminomethyl-piperidin-1-yl)-5-cyclopropyl-pyrido[3,4-d]pyrimidin-2-yl]-pyridin-2-yl}-(2,6-difluoro-phenyl)-amine], the 50% inhibitory concentration (IC50) was under 0.1 µM.

With `C[C@H]1CN(c2nc(-c3ccnc(Nc4nc(F)ccc4F)c3)nc3cncc(C4CC4)c23)CCN1` [Example 694, {4-[5-Cyclopropyl-4-((S)-3-methyl-piperazin-1-yl)-pyrido[3,4-d]pyrimidin-2-yl]-pyridin-2-yl}-(3,6-difluoro-pyridin-2-yl)-amine], the IC50 was under 0.1 µM.

Regarding `CC1(C)CNCCC1Nc1nc(-c2ccnc(Nc3ncc(F)cc3F)c2)nc2cncc(C3CC3)c12` (stereo not shown) [Example 2175, {5-Cyclopropyl-2-[2-(3,5-difluoro-pyridin-2-ylamino)-pyridin-4-yl]-pyrido[3,4-d]pyrimidin-4-yl}-(3,3-dimethyl-piperidin-4-yl)-amine], the IC50 was under 0.1 µM.

With `CN1CCC(N(C)c2nc(-c3ccnc(Nc4ncc(F)cc4F)c3)nc3cncc(C4CC4)c23)CC1` [Example 2129, {5-Cyclopropyl-2-[2-(3,5-difluoro-pyridin-2-ylamino)-pyridin-4-yl]-pyrido[3,4-d]pyrimidin-4-yl}-methyl-(1-methyl-piperidin-4-yl)-amine], the IC50 is under 0.1 µM.

For `c1cc2c(N[C@@H]3CCNC3)nc(-c3ccnc(Nc4ccc(N5CCOCC5)cn4)c3)nc2cn1` [Example 357, {2-[2-(5-Morpholin-4-yl-pyridin-2-ylamino)-pyridin-4-yl]-pyrido[3,4-d]pyrimidin-4-yl}-(R)-pyrrolidin-3-yl-amine], the IC50 is under 0.1 µM.

On to `c1ccc(Nc2cc(-c3nc(N4CCN[C@@H](C5CC5)C4)c4c(C5CC5)cncc4n3)ccn2)cc1` [Example 273, {4-[5-Cyclopropyl-4-((S)-3-cyclopropyl-piperazin-1-yl)-pyrido[3,4-d]pyrimidin-2-yl]-pyridin-2-yl}-phenyl-amine], for which the IC50 was under 0.1 µM.

On to `c1ccc(Nc2cc(-c3nc(NC[C@@H]4CCCN4)c4c(C5CC5)cncc4n3)ccn2)cc1` [Example 697, [5-Cyclopropyl-2-(2-phenylamino-pyridin-4-yl)-pyrido[3,4-d]pyrimidin-4-yl]-(S)-1-pyrrolidin-2-ylmethyl-amine], for which the IC50 is 0.1 to 1 µM.

`CN(C)c1ccc(Nc2cc(-c3nc(N4CCNCC4)c4c(C5CC5)cncc4n3)ccn2)cn1` [Example 551, N^5-[4-(5-Cyclopropyl-4-piperazin-1-yl-pyrido[3,4-d]pyrimidin-2-yl)-pyridin-2-yl]-N^2,N^2-dimethyl-pyridine-2,5-diamine]: the half-inhibitory concentration (IC50) was under 0.1 µM.

`CN1CCN(c2cccc(Nc3cc(-c4nc(N5CCC(O)C(O)C5)c5c(C6CC6)cncc5n4)ccn3)c2)CC1` (racemic) [Example 678, (+/−)-(trans)-1-(5-Cyclopropyl-2-{2-[3-(4-methyl-piperazin-1-yl)-phenylamino]-pyridin-4-yl}-pyrido[3,4d]pyrimidin-4-yl)-piperidine-3,4-diol]: the IC50 is under 0.1 µM.

In the case of `COc1ccc(Cl)c(Nc2cc(-c3nc(N4CCNCC4)c4c(C5CC5)cncc4n3)ccn2)c1` [Example 592, (2-Chloro-5-methoxy-phenyl)-[4-(5-cyclopropyl-4-piperazin-1-yl-pyrido[3,4-d]pyrimidin-2-yl)-pyridin-2-yl]-amine], the IC50 is under 0.1 µM.

As for `CNC(=O)C1CCN(c2nc(-c3ccnc(Nc4c(F)cccc4F)c3)nc3cncc(C4CC4)c23)C1` (stereo not shown) [Example 726, 1-{5-Cyclopropyl-2-[2-(2,6-difluoro-phenylamino)-pyridin-4-yl]-pyrido[3,4-d]pyrimidin-4-yl}-pyrrolidine-3-carboxylic acid methylamide], the 50% inhibitory concentration (IC50) was in the range of 0.1 to 1 µM.

For `COc1cncc2nc(-c3ccnc(Nc4cc(C(F)(F)F)ccn4)c3)nc(N3CCNCC3)c12` [Example 367, [4-(5-Methoxy-4-piperazin-1-yl-pyrido[3,4-d]pyrimidin-2-yl)-pyridin-2-yl]-(4-trifluoromethyl-pyridin-2-yl)-amine], the IC50 is under 0.1 µM.

In the case of `CC(C)NC(=O)C1CCN(c2nc(-c3ccnc(Nc4c(F)cccc4F)c3)nc3cncc(C4CC4)c23)CC1` [Example 655, 1-{5-Cyclopropyl-2-[2-(2,6-difluoro-phenylamino)-pyridin-4-yl]-pyrido[3,4-d]pyrimidin-4-yl}-piperidine-4-carboxylic acid isopropylamide], the IC50 is 1 to 10 µM.
